Measured values reported in patent US20240293563A1, “GLP-1 RECEPTOR LIGAND MOIETY CONJUGATED OLIGONUCLEOTIDES AND USES THEREOF” (priority 2017, published 2024).
Square brackets hold non-standard residues; d marks the D form. Side chains are listed from the residue outwards. Ends that are not written are not given here. 5'‑hexylamino oligonucleotide ISIS 786434 = not defined here; Aib = CC(C)(N)C(=O)O; Mpa = O=C(O)CCS

Assays:
MALAT1 mRNA = experiment: Dose dependent antisense inhibition of MALAT1 in WT HEK293 cells; format: cell-based, human; conditions: approximately 24 hrs, qRT-PCR normalized to RPLP0
MALAT1 [1] = experiment: MALAT1 in situ hybridization in beta islet cells after i.v. GLP-1 ASO conjugates with various linkers; format: in vivo, mouse; conditions: male C57BL/6 mice; intravenous 0.6 μmol/kg/week once a week for three weeks; 72 hours after final injection
MALAT-1 = experiment: Dose-dependent reduction of MALAT-1 expression in LVX-GLP1R cells; format: cell-based, human
Description: HEK cells stably expressing FLAG-tagged GLP1R were generated by infecting HEK 293 cells with FLAG-tagged GLP1R containing lentivirus produced by transfection of 293T cells with pLVX-IRES-Puro (Clontech Laboratories Inc., Mountainview, CA) harboring the FLAG-GLP1R insert. Infected cells were selected with puromycin (2 μg/ml) and then analyzed for receptor expression by western blot and immunofluorescence. Cultured GLP1R cells were plated at a density of 10,000 cells per well and treated with 0.3, 1, 3, 9, 27, 82, 247, 741, 2,222, 6,667, and 20,000 nM modified oligonucleotide for approximately 24 hours. After the treatment period, total RNA was prepared using an RNeasy mini kit (Qiagen, Valencia, CA, USA) and qRT-PCR was performed using the primer probe set RTS2739 (forward sequence: […] (SEQ ID NO: 74), reverse sequence: […] (SEQ ID NO: 75), probe sequence: […] (SEQ ID NO: 76). Briefly, ˜50 ng total RNA in 5 d water was mixed with 0.3 d primer probe sets containing forward and reverse primers (10 μM of each) and fluorescently labeled probe (3 μM), 0.3 W RT enzyme mix (Qiagen), 4.4 d RNase-free water, and 10 d of 2×PCR reaction buffer in a 20 d reaction. Reverse transcription was performed at 48° C. for 10 min, 40 cycles of PCR were conducted at 94° C. for 20 s, and 60° C. for 20 s within each cycle, using StepOne Plus RT-PCR system (Applied Biosystems, Phoenix, AZ, USA). The mRNA levels were normalized to the amount of total RNA present in each reaction as determined by Ribogreen assay (Life Technologies) and normalized to the saline control (100% expression).

MALAT1 [2] = experiment: Effect of peptide composition and attachment point on peptide-conjugated ASO activity in LVX-GLP1R cells; format: cell-based, human; conditions: 7 doses in a 4-fold dilution series, MALAT1 RNA
MALAT-1 mRNA = experiment: Dose-response inhibition of MALAT-1 mRNA in pancreatic islets 72 hrs after single s.c. dose, various linkers; format: in vivo, mouse; conditions: 0.01 μmol/kg single subcutaneous injection, relative to PBS
[3] = Food intake of mice after single subcutaneous injection of GLP-1 conjugated ASO; format: in vivo, mouse
Description: Groups of eight mice were administered a single subcutaneous injection of 0.01, 0.03, or 0.1 μmol/kg of ION 816385 (GLP-1 conjugated MALAT-1 ASO conjugated via a disulfide linker) or 0.1 μmol/kg ION 1123118 (GLP-1 conjugated MALAT-1 ASO conjugated via a maleimide acid linker), as indicated in the table below, and food intake was measured for 24 hours. Food intake of eight mice administered a subcutaneous injection of PBS was monitored as a control.

ISIS 816385 (H[Aib]EGTFTSDVSSYLEEQAAKEFIAWLVKGGPSSGAPPPSC([Mpa-5'‑hexylamino oligonucleotide ISIS 786434])-NH2; reading uncertain; also: Cys40 joined to the linker by a disulfide)
IC50 (MALAT1 mRNA): 2210 nM
MALAT1 expression in beta islet cells compared to saline control (in situ hybridization) (MALAT1 [1]): reduced
dose-dependent inhibition of MALAT-1 (MALAT-1; GLP1R HEK cells, GLP-1 complexed ASOs with or without a TCA linker versus parent): increased dose-dependent inhibition
IC50 (MALAT-1; approximately 24 hours, read-out: IC50 (MALAT-1 expression in GLP1R HEK cells)): 260 nM
IC50 (MALAT1 [2]): 350 nM
% inhibition of MALAT-1 mRNA in Pancreatic Islets (MALAT-1 mRNA): 52%
Cumulative Food Intake ([3]; 0.01 μmol/kg single s.c., Time 1 h): 0.10 g
Cumulative Food Intake ([3]; 0.01 μmol/kg single s.c., Time 2 h): 0.25 g
Cumulative Food Intake ([3]; 0.01 μmol/kg single s.c., Time 3 h): 0.40 g
Cumulative Food Intake ([3]; 0.01 μmol/kg single s.c., Time 4 h): 0.56 g
Cumulative Food Intake ([3]; 0.01 μmol/kg single s.c., Time 5 h): 0.71 g
Cumulative Food Intake ([3]; 0.01 μmol/kg single s.c., Time 6 h): 0.86 g
Cumulative Food Intake ([3]; 0.01 μmol/kg single s.c., Time 7 h): 1.09 g
Cumulative Food Intake ([3]; 0.01 μmol/kg single s.c., Time 8 h): 1.23 g
Cumulative Food Intake ([3]; 0.01 μmol/kg single s.c., Time 9 h): 1.34 g
Cumulative Food Intake ([3]; 0.01 μmol/kg single s.c., Time 10 h): 1.47 g
Cumulative Food Intake ([3]; 0.01 μmol/kg single s.c., Time 11 h): 1.61 g
Cumulative Food Intake ([3]; 0.01 μmol/kg single s.c., Time 12 h): 1.81 g
Cumulative Food Intake ([3]; 0.01 μmol/kg single s.c., Time 13 h): 1.97 g
Cumulative Food Intake ([3]; 0.01 μmol/kg single s.c., Time 14 h): 2.22 g
Cumulative Food Intake ([3]; 0.01 μmol/kg single s.c., Time 15 h): 2.26 g
Cumulative Food Intake ([3]; 0.01 μmol/kg single s.c., Time 16 h): 2.31 g
Cumulative Food Intake ([3]; 0.01 μmol/kg single s.c., Time 17 h): 2.57 g
Cumulative Food Intake ([3]; 0.01 μmol/kg single s.c., Time 18 h): 2.57 g
Cumulative Food Intake ([3]; 0.01 μmol/kg single s.c., Time 19 h): 2.58 g
Cumulative Food Intake ([3]; 0.01 μmol/kg single s.c., Time 20 h): 2.64 g
Cumulative Food Intake ([3]; 0.01 μmol/kg single s.c., Time 21 h): 2.64 g
Cumulative Food Intake ([3]; 0.01 μmol/kg single s.c., Time 22 h): 2.69 g
Cumulative Food Intake ([3]; 0.01 μmol/kg single s.c., Time 23 h): 2.69 g
Cumulative Food Intake ([3]; 0.01 μmol/kg single s.c., Time 24 h): 2.69 g
Cumulative Food Intake ([3]; 0.03 μmol/kg single s.c., Time 1 h): 0.15 g
Cumulative Food Intake ([3]; 0.03 μmol/kg single s.c., Time 2 h): 0.21 g
Cumulative Food Intake ([3]; 0.03 μmol/kg single s.c., Time 3 h): 0.26 g
Cumulative Food Intake ([3]; 0.03 μmol/kg single s.c., Time 4 h): 0.31 g
Cumulative Food Intake ([3]; 0.03 μmol/kg single s.c., Time 5 h): 0.38 g
Cumulative Food Intake ([3]; 0.03 μmol/kg single s.c., Time 6 h): 0.48 g
Cumulative Food Intake ([3]; 0.03 μmol/kg single s.c., Time 7 h): 0.53 g
Cumulative Food Intake ([3]; 0.03 μmol/kg single s.c., Time 8 h): 0.55 g
Cumulative Food Intake ([3]; 0.03 μmol/kg single s.c., Time 9 h): 0.66 g
Cumulative Food Intake ([3]; 0.03 μmol/kg single s.c., Time 10 h): 0.73 g
Cumulative Food Intake ([3]; 0.03 μmol/kg single s.c., Time 11 h): 0.79 g
Cumulative Food Intake ([3]; 0.03 μmol/kg single s.c., Time 12 h): 0.89 g
Cumulative Food Intake ([3]; 0.03 μmol/kg single s.c., Time 13 h): 0.99 g
Cumulative Food Intake ([3]; 0.03 μmol/kg single s.c., Time 14 h): 1.07 g
Cumulative Food Intake ([3]; 0.03 μmol/kg single s.c., Time 15 h): 1.09 g
Cumulative Food Intake ([3]; 0.03 μmol/kg single s.c., Time 16 h): 1.22 g
Cumulative Food Intake ([3]; 0.03 μmol/kg single s.c., Time 17 h): 1.23 g
Cumulative Food Intake ([3]; 0.03 μmol/kg single s.c., Time 18 h): 1.26 g
Cumulative Food Intake ([3]; 0.03 μmol/kg single s.c., Time 19 h): 1.29 g
Cumulative Food Intake ([3]; 0.03 μmol/kg single s.c., Time 20 h): 1.33 g
Cumulative Food Intake ([3]; 0.03 μmol/kg single s.c., Time 21 h): 1.39 g
Cumulative Food Intake ([3]; 0.03 μmol/kg single s.c., Time 22 h): 1.39 g
Cumulative Food Intake ([3]; 0.03 μmol/kg single s.c., Time 23 h): 1.39 g
Cumulative Food Intake ([3]; 0.03 μmol/kg single s.c., Time 24 h): 1.39 g
Cumulative Food Intake ([3]; 0.1 μmol/kg single s.c., Time 1 h): 0.06 g
Cumulative Food Intake ([3]; 0.1 μmol/kg single s.c., Time 2 h): 0.12 g
Cumulative Food Intake ([3]; 0.1 μmol/kg single s.c., Time 3 h): 0.17 g
Cumulative Food Intake ([3]; 0.1 μmol/kg single s.c., Time 4 h): 0.20 g
Cumulative Food Intake ([3]; 0.1 μmol/kg single s.c., Time 5 h): 0.26 g
Cumulative Food Intake ([3]; 0.1 μmol/kg single s.c., Time 6 h): 0.28 g
Cumulative Food Intake ([3]; 0.1 μmol/kg single s.c., Time 7 h): 0.31 g
Cumulative Food Intake ([3]; 0.1 μmol/kg single s.c., Time 8 h): 0.37 g
Cumulative Food Intake ([3]; 0.1 μmol/kg single s.c., Time 9 h): 0.39 g
Cumulative Food Intake ([3]; 0.1 μmol/kg single s.c., Time 10 h): 0.44 g
Cumulative Food Intake ([3]; 0.1 μmol/kg single s.c., Time 11 h): 0.49 g
Cumulative Food Intake ([3]; 0.1 μmol/kg single s.c., Time 12 h): 0.50 g
Cumulative Food Intake ([3]; 0.1 μmol/kg single s.c., Time 13 h): 0.58 g
Cumulative Food Intake ([3]; 0.1 μmol/kg single s.c., Time 14 h): 0.62 g
Cumulative Food Intake ([3]; 0.1 μmol/kg single s.c., Time 15 h): 0.67 g
Cumulative Food Intake ([3]; 0.1 μmol/kg single s.c., Time 16 h): 0.75 g
Cumulative Food Intake ([3]; 0.1 μmol/kg single s.c., Time 17 h): 0.76 g
Cumulative Food Intake ([3]; 0.1 μmol/kg single s.c., Time 18 h): 0.83 g
Cumulative Food Intake ([3]; 0.1 μmol/kg single s.c., Time 19 h): 0.89 g
Cumulative Food Intake ([3]; 0.1 μmol/kg single s.c., Time 20 h): 0.90 g
Cumulative Food Intake ([3]; 0.1 μmol/kg single s.c., Time 21 h): 0.91 g
Cumulative Food Intake ([3]; 0.1 μmol/kg single s.c., Time 22 h): 0.93 g
Cumulative Food Intake ([3]; 0.1 μmol/kg single s.c., Time 23 h): 0.93 g
Cumulative Food Intake ([3]; 0.1 μmol/kg single s.c., Time 24 h): 0.94 g
